Source: article PMC10294832, “Investigation of Naphthyl–Polyamine Conjugates as Antimicrobials and Antibiotic Enhancers” (Antibiotics, 2023)
Read-outs that look alike come from different tables or passages of the source.

Tests used:
[1] = system: P. aeruginosa (PAO1 or ATCC 27853); test: Antimicrobial MIC, P. aeruginosa; format: cell-based; conditions: Pseudomonas aeruginosa; P. aeruginosa (PAO1 or ATCC 27853); mean (n = 3); read-out: MIC P. a
Experimental: (§1) The susceptibility of bacterial strains S. aureus (ATCC 25,923 or 29213), E. coli (ATCC 25922), and P. aeruginosa (ATCC 27853) to antibiotics and compounds was determined according to previously reported protocols. Additional antimicrobial evaluation against MRSA (ATCC 43300), Klebsiella pneumoniae (ATCC 700603), Acinetobacter baumannii (ATCC 19606), Candida albicans (ATCC 90028), and Cryptococcus neoformans (ATCC 208821) was undertaken at the Community for Open Antimicrobial Drug Discovery at The University of Queensland (Australia) according to their standard protocols as reported previously.

[2] = system: C. albicans (ATCC 90028); test: Antifungal MIC, C. albicans; format: cell-based; conditions: Candida albicans, ATCC90028, mean (n = 2)
Experimental: as §1

[3] = Cytotoxicity assay; format: cell-based, human; conditions: human, HEK293 human embryonic kidney cells, concentration at 50% cytotoxicity on HEK293 cells; mean (n = 2)
Experimental: Cytotoxicity assays were conducted using the protocols previously reported.

[4] = system: K. pneumoniae (ATCC 700603); test: Antimicrobial MIC, K. pneumoniae; format: cell-based; conditions: Klebsiella pneumoniae, ATCC700603, mean (n = 2)
Experimental: as §1

[5] = system: E. coli (ATCC 25922); test: Antimicrobial MIC, E. coli; format: cell-based, Escherichia coli; conditions: Escherichia coli, ATCC25922, E. coli (ATCC 25922); mean (n = 2)
Experimental: as §1

[6] = system: human red blood cells; test: Hemolytic assay; format: cell-based; conditions: concentration at 10% hemolytic activity on human red blood cells; mean (n = 2)
Experimental: Hemolysis assays were conducted using the protocols previously reported.

[7] = system: E. coli (ATCC 25922); test: Enhancement of erythromycin activity; format: cell-based, Escherichia coli; conditions: for Eryth/E.c: concentration required to restore erythromycin activity (combination MIC): erythromycin fixed at 10.9 µM (8 µg/mL), E. coli (ATCC 25922); for Eryth/E.c fold change: ratio between intrinsic MIC of test compound and combination MIC, erythromycin 10.9 µM, E. coli
Experimental: Restoring enhancer concentrations were determined using previously reported protocols.

[8] = system: A. baumannii (ATCC 19606); test: Antimicrobial MIC, A. baumannii; format: cell-based, Acinetobacter baumannii; conditions: Acinetobacter baumannii, ATCC19606, A. baumannii (ATCC 19606); mean (n = 2)
Experimental: as §1

[9] = system: S. aureus (ATCC 25,923 or ATCC 29213); test: Antimicrobial MIC, S. aureus; format: cell-based, Staphylococcus aureus; conditions: Staphylococcus aureus, mean (n = 3)
Experimental: as §1

[10] = system: C. neoformans (ATCC 208821); test: Antifungal MIC, C. neoformans; format: cell-based, Cryptococcus neoformans; conditions: Cryptococcus neoformans, ATCC208821, C. neoformans (ATCC 208821); mean (n = 2)
Experimental: as §1

[11] = system: MRSA (ATCC 43300); test: Antimicrobial MIC, MRSA; format: cell-based, methicillin-resistant Staphylococcus aureus; conditions: MRSA (ATCC 43300), mean (n = 2), read-out: MIC MRSA
Experimental: as §1

[12] = system: P. aeruginosa (ATCC 27853); test: Enhancement of doxycycline activity; format: cell-based, Pseudomonas aeruginosa; conditions: for Dox/P.a: concentration required to restore doxycycline activity (combination MIC): doxycycline fixed at 4.5 µM (2 µg/mL), P. aeruginosa (ATCC 27853); for Dox/P.a fold change: ratio between intrinsic MIC of test compound and combination MIC, doxycycline 4.5 µM, P. aeruginosa

## O=C(NCCCNCCCCCCNCCCNC(=O)c1ccc2ccccc2c1)c1ccc2ccccc2c1.O=C(O)C(F)(F)F.O=C(O)C(F)(F)F [Compound 19b, N^1,N^6-Bis(3-(2-naphthamido)propyl)hexane-1,6-diaminium 2,2,2-trifluoroacetate]
[1]
  MIC: > 130 µM
[2]
  MIC: > 41.7 µM
[3]
  IC50: > 41.7 µM
[4]
  MIC: > 41.7 µM
[5]
  MIC: 130 µM
[6]
  Hemolysis HC10: >41.7 µM
[7]
  Eryth/E.c: concentration required to restore erythromycin activity (combination MIC): 65.2 µM
  Eryth/E.c fold change: 2 fold
[8]
  MIC: > 41.7 µM
[9]
  MIC: 65.2 µM
[10]
  MIC: 20.9 µM
[11]; Staphylococcus aureus
  MIC: 41.7 µM
[12]
  Dox/P.a: concentration required to restore doxycycline activity (combination MIC): 65.2 µM
  Dox/P.a fold change: > 2 fold

## O=C(CCC(=O)Nc1cccc2ccccc12)NCCCNCCCCCCCCCCNCCCNC(=O)CCC(=O)Nc1cccc2ccccc12.O=C(O)C(F)(F)F.O=C(O)C(F)(F)F [Compound 18e, N^1,N^10-Bis(3-(4-(naphthalen-1-ylamino)-4-oxobutanamido)propyl)decane-1,10-diaminium 2,2,2-trifluoroacetate]
[1]
  MIC: 518 µM
[2]
  MIC: > 33.2 µM
[3]
  IC50: > 33.2 µM
[4]
  MIC: > 33.2 µM
[5]
  MIC: 518 µM
[6]
  Hemolysis HC10: >33.2 µM
[7]
  Eryth/E.c: concentration required to restore erythromycin activity (combination MIC): 51.8 µM
  Eryth/E.c fold change: 10 fold
[8]
  MIC: > 33.2 µM
[9]
  MIC: 104 µM
[10]
  MIC: 33.2 µM
[11]; Staphylococcus aureus
  MIC: 33.2 µM
[12]
  Dox/P.a: concentration required to restore doxycycline activity (combination MIC): 207 µM
  Dox/P.a fold change: 2.5 fold

## O=C(CCC(=O)Nc1ccc2ccccc2c1)NCCCNCCCCCCNCCCNC(=O)CCC(=O)Nc1ccc2ccccc2c1.O=C(O)C(F)(F)F.O=C(O)C(F)(F)F [Compound 20b, N^1,N^6-Bis(3-(4-(naphthalen-2-ylamino)-4-oxobutanamido)propyl)hexane-1,6-diaminium 2,2,2-trifluoroacetate]
[1]
  MIC: > 200 µM
[2]
  MIC: > 35.2 µM
[3]
  IC50: > 35.2 µM
[4]
  MIC: > 35.2 µM
[5]
  MIC: 50 µM
[6]
  Hemolysis HC10: >35.2 µM
[7]
  Eryth/E.c: concentration required to restore erythromycin activity (combination MIC): 50 µM
  Eryth/E.c fold change: 1 fold
[8]
  MIC: > 35.2 µM
[9]
  MIC: > 200 µM
[10]
  MIC: 35.2 µM
[11]; Staphylococcus aureus
  MIC: > 35.2 µM
[12]
  Dox/P.a: concentration required to restore doxycycline activity (combination MIC): 25 µM
  Dox/P.a fold change: > 8 fold

## O=C(NCCCNCCCCCCCNCCCNC(=O)c1cccc2ccccc12)c1cccc2ccccc12.O=C(O)C(F)(F)F.O=C(O)C(F)(F)F [Compound 17c, N^1,N^7-Bis(3-(1-naphthamido)propyl)heptane-1,7-diaminium 2,2,2-trifluoroacetate]
[1]
  MIC: > 256 µM
[2]
  MIC: > 41 µM
[3]
  IC50: > 41 µM
[4]
  MIC: > 41 µM
[5]
  MIC: 256 µM
[6]
  Hemolysis HC10: >41.0 µM
[7]
  Eryth/E.c: concentration required to restore erythromycin activity (combination MIC): 64 µM
  Eryth/E.c fold change: 4 fold
[8]
  MIC: > 41 µM
[9]
  MIC: 256 µM
[10]
  MIC: > 41 µM
[11]; Staphylococcus aureus
  MIC: > 41 µM
[12]
  Dox/P.a: concentration required to restore doxycycline activity (combination MIC): 64 µM

## O=C(NCCCNCCCCCCCCCCCCNCCCNC(=O)c1cccc2ccccc12)c1cccc2ccccc12.O=C(O)C(F)(F)F.O=C(O)C(F)(F)F [Compound 17f, N^1,N^12-Bis(3-(1-naphthamido)propyl)dodecane-1,12-diaminium 2,2,2-trifluoroacetate]
[1]
  MIC: 300 µM
[2]
  MIC: > 37.6 µM
[3]
  IC50: > 37.6 µM
[4]
  MIC: > 37.6 µM
[5]
  MIC: 100 µM
[6]
  Hemolysis HC10: >37.6 µM
[7]
  Eryth/E.c: concentration required to restore erythromycin activity (combination MIC): 50 µM
  Eryth/E.c fold change: 2 fold
[8]
  MIC: 0.29 µM
[9]
  MIC: 25 µM
[10]
  MIC: 0.29 µM
[11]; Staphylococcus aureus
  MIC: 0.29 µM
[12]
  Dox/P.a: concentration required to restore doxycycline activity (combination MIC): 300 µM
  Dox/P.a fold change: 1 fold

## O=C(NCCCNCCCCCCCCNCCCNC(=O)c1ccc2ccccc2c1)c1ccc2ccccc2c1.O=C(O)C(F)(F)F.O=C(O)C(F)(F)F [Compound 19d, N^1,N^8-Bis(3-(2-naphthamido)propyl)octane-1,8-diaminium 2,2,2-trifluoroacetate]
[1]
  MIC: 126 µM
[2]
  MIC: > 40.3 µM
[3]
  IC50: > 40.3 µM
[4]
  MIC: > 40.3 µM
[5]
  MIC: 126 µM
[6]
  Hemolysis HC10: >40.3 µM
[7]
  Eryth/E.c: concentration required to restore erythromycin activity (combination MIC): 15.7 µM
  Eryth/E.c fold change: 8 fold
[8]
  MIC: > 40.3 µM
[9]
  MIC: 7.9 µM
[10]
  MIC: 40.3 µM
[11]; Staphylococcus aureus
  MIC: 40.3 µM
[12]
  Dox/P.a: concentration required to restore doxycycline activity (combination MIC): 15.7 µM
  Dox/P.a fold change: 8 fold

## O=C(CCC(=O)Nc1cccc2ccccc12)NCCCNCCCCCCCNCCCNC(=O)CCC(=O)Nc1cccc2ccccc12.O=C(O)C(F)(F)F.O=C(O)C(F)(F)F [Compound 18c, N^1,N^7-Bis(3-(4-(naphthalen-1-ylamino)-4-oxobutanamido)propyl)heptane-1,7-diaminium 2,2,2-trifluoroacetate]
[1]
  MIC: 200 µM
[2]
  MIC: > 34.7 µM
[3]
  IC50: > 34.7 µM
[4]
  MIC: > 34.7 µM
[5]
  MIC: 200 µM
[6]
  Hemolysis HC10: >34.7 µM
[7]
  Eryth/E.c: concentration required to restore erythromycin activity (combination MIC): 200 µM
  Eryth/E.c fold change: 1 fold
[8]
  MIC: > 34.7 µM
[9]
  MIC: > 200 µM
[10]
  MIC: > 34.7 µM
[11]; Staphylococcus aureus
  MIC: > 34.7 µM
[12]
  Dox/P.a: concentration required to restore doxycycline activity (combination MIC): 12.5 µM
  Dox/P.a fold change: 16 fold

## O=C(NCCCNCCCCCCCCCCNCCCNC(=O)c1cccc2ccccc12)c1cccc2ccccc12.O=C(O)C(F)(F)F.O=C(O)C(F)(F)F [Compound 17e, N^1,N^10-Bis(3-(1-naphthamido)propyl)decane-1,10-diaminium 2,2,2-trifluoroacetate]
[1]
  MIC: 608 µM
[2]
  MIC: > 38.9 µM
[3]
  IC50: 23.7 µM
[4]
  MIC: > 38.9 µM
[5]
  MIC: 608 µM
[6]
  Hemolysis HC10: >38.9 µM
[7]
  Eryth/E.c: concentration required to restore erythromycin activity (combination MIC): 122 µM
  Eryth/E.c fold change: 5 fold
[8]
  MIC: > 38.9 µM
[9]
  MIC: 244 µM
[10]
  MIC: 38.9 µM
[11]
  MIC: 9.72 µM
[11]; Staphylococcus aureus
  MIC: 9.7 µM
[12]
  Dox/P.a: concentration required to restore doxycycline activity (combination MIC): 608 µM
  Dox/P.a fold change: 1 fold

## O=C(CCC(=O)Nc1cccc2ccccc12)NCCCNCCCCCCNCCCNC(=O)CCC(=O)Nc1cccc2ccccc12.O=C(O)C(F)(F)F.O=C(O)C(F)(F)F [Compound 18b, N^1,N^6-Bis(3-(4-(naphthalen-1-ylamino)-4-oxobutanamido)propyl)hexane-1,6-diaminium 2,2,2-trifluoroacetate]
[1]
  MIC: > 200 µM
[2]
  MIC: > 35.2 µM
[3]
  IC50: > 35.2 µM
[4]
  MIC: > 35.2 µM
[5]
  MIC: > 200 µM
[6]
  Hemolysis HC10: >35.2 µM
[7]
  Eryth/E.c: concentration required to restore erythromycin activity (combination MIC): 200 µM
  Eryth/E.c fold change: 1 fold
[8]
  MIC: > 35.2 µM
[9]
  MIC: > 200 µM
[10]
  MIC: > 35.2 µM
[11]; Staphylococcus aureus
  MIC: > 35.2 µM
[12]
  Dox/P.a: concentration required to restore doxycycline activity (combination MIC): 100 µM
  Dox/P.a fold change: > 2 fold
